Measurements taken from the NIST ThermoML archive (doi:10.1021/je050420+).

Legend:
[1] = Liquid; for mass density / speed of sound: 298.15 K, 101.33 kPa
[2] = refractive index (Na D-line) (dimensionless); conditions: 298.15 K; 101.33 kPa; Liquid; Standard Abbe refractometry
[3] = xn = mol fraction of the nth substance listed; conditions: 298.15 K, 101 kPa, Liquid

CCC(C)CO (stereo not given) [2-methyl-1-butanol]
Conditions | mass density [kg/m3] | refractive index | speed of sound [m/s]
[1] | 814.7 | – | 1251.8
[2] | – | 1.40866 | –

Conditions | Normal boiling temperature [°C]
[1], Ebulliometric method (Recirculating still) | 128.78

CCC(C)CO (stereo not given) [2-methyl-1-butanol] + CCOC(C)=O
[3]
Conditions | mass density [kg/m3]
x2 = 0.05 | 817.8
x2 = 0.099 | 820.9
x2 = 0.15 | 824.2
x2 = 0.2 | 827.5
x2 = 0.25 | 830.9
x2 = 0.3 | 834.4
x2 = 0.349 | 838
x2 = 0.399 | 841.7
x2 = 0.451 | 845.6
x2 = 0.499 | 849.4
x2 = 0.549 | 853.3
x2 = 0.598 | 857.3
x2 = 0.65 | 861.6
x2 = 0.699 | 865.8
x2 = 0.75 | 870.2
x2 = 0.793 | 874.2
x2 = 0.846 | 879.1
x2 = 0.9 | 884.2
x2 = 0.95 | 889.1

CC(C)CO [2-methyl-1-propanol]
Conditions | mass density [kg/m3] | refractive index | speed of sound [m/s]
[1] | 797.8 | – | 1186.4
[2] | – | 1.39366 | –

Conditions | Normal boiling temperature [°C]
[1], Ebulliometric method (Recirculating still) | 107.78

CC(C)CO [2-methyl-1-propanol] + CCOC(C)=O
[3]
Conditions | mass density [kg/m3]
x2 = 0.049 | 802.3
x2 = 0.101 | 806.8
x2 = 0.153 | 811.5
x2 = 0.202 | 816
x2 = 0.251 | 820.6
x2 = 0.3 | 825.2
x2 = 0.35 | 829.9
x2 = 0.401 | 834.7
x2 = 0.451 | 839.5
x2 = 0.501 | 844.3
x2 = 0.55 | 849
x2 = 0.6 | 853.8
x2 = 0.65 | 858.8
x2 = 0.7 | 863.7
x2 = 0.751 | 868.9
x2 = 0.801 | 873.8
x2 = 0.85 | 878.7
x2 = 0.9 | 883.8
x2 = 0.95 | 888.9

CCOC(C)=O [ethyl acetate]
Conditions | Normal boiling temperature [°C] | mass density [kg/m3] | refractive index | speed of sound [m/s]
[1] | 77.00 | 894.3 | – | 1139.6
[2] | – | – | 1.36978 | –
